A short description of one data set: in vivo. Particulars: female, athymic nu/nu, mouse, plasma, po, 75 mg/kg.
Data set [1] has as its system MX1 human xenograft breast cancer model. Nature of the data set: MX1 in vivo xenograft cancer model. The arrangement: species or system athymic nude mice. Here is the method: Female athymic nude mice from Charles River weighing 22 to 26 grams were implanted subcutaneously in the flank with 1×10^7 cells in a 1:1 (v/v) mixture in matrigel. […] Tumor volumes and body weight were determined by electronic caliper every 2 to 3 days. Repeat measures analysis was utilized with log transformed data and the auto-regression (AR) method to determine the overall p-value for galunisertib growth curves relative to the vehicle control in both tumor models. […]

The next data set deals with pSMAD in PBMC. Nature of the data set: 13762 rat tumor model, ex vivo stimulated PBMC pSMAD. The conditions noted are these: Table 4, read-out: IC50 of pSMAD (%CV). It is filed as in vivo, Fischer 344 rats. Here is the method:
(§1) Fischer 344 rats from Taconic Farms weighing 150 to 160 grams were acclimatized for 1 week prior to study initiation and had ad libitum access to food. Rats were shaved in the implant area then given a subcutaneous flank injection of 5 × 10^6 13762 rat mammary carcinoma cells in a 1:1 (v/v) mixture with Matrigel in media. […] Tumor, PBMCs, and plasma were collected at 0.5, 1, 1.5, 2, 4, 8, 16, and 24 hours for further analysis.
Ex vivo stimulation and assessment of target modulation in PBMCs have been described in detail previously. Briefly, whole blood (2 to 3 mL) was collected by cardiac puncture from Fischer 344 rats and transferred to BD Vacutainer CPT sodium citrate tubes. PBMCs isolated from whole blood were stimulated with TGFβ1 at a final concentration of 100 pM at 37°C for one hour. Cells were washed with cold PBS and lysed in 50-100 μL of lysis buffer, and pSMAD and tSMAD levels were assessed by immunoblot assay as described above.
For correlation of pSMAD modulation in 13762 rat mammary carcinoma tumors and PBMCs, data were normalized using an analysis of co-variance of log pSMAD versus log tSMAD and treatment group. The slope (b) from this analysis was used to normalize the pSMAD values using pSMAD/(tSMAD)^b. Percent inhibition was calculated by the following formula: 100-(y/x)*100 where y = normalized pSMAD value and x = mean normalized pSMAD in the vehicle control. […]

The next data set concerns U87MG xenograft tumors. Nature of the data set: U87MG glioblastoma xenograft tumor model. Particulars: galunisertib 25 mg/kg BID oral; lomustine (CCNU) 30 mg/kg single intraperitoneal dose; alone or combined.
Data set [2] concerns pSMAD in Calu6 and EMT6-LM2 tumors. Nature of the data set: PK/PD profile from Calu6 and EMT6-LM2 in vivo target inhibition studies (statements not split by model). The arrangement: species or system mice.
Data set [3] concerns pSMAD in 13762 rat mammary carcinoma tumor. Nature of the data set: 13762 rat tumor model, pSMAD in tumor tissue. Particulars: Table 4, read-out: IC50 of pSMAD (%CV). It is filed as in vivo, Fischer 344 rats. Here is the method:
as §1
For correlation of pSMAD modulation in 13762 rat mammary carcinoma tumors and PBMCs, data were normalized using an analysis of co-variance of log pSMAD versus log tSMAD and treatment group. The slope (b) from this analysis was used to normalize the pSMAD values using pSMAD/(tSMAD)^b. Percent inhibition was calculated by the following formula: 100-(y/x)*100 where y = normalized pSMAD value and x = mean normalized pSMAD in the vehicle control. Linear correlation was used to compare tumor and PBMC measurements. In addition, using a cutoff of 50%, a 2 × 2 contingency table analysis was performed using Fisher's exact test.

A further data set relates to pSMAD in NIH3T3 cells. Nature of the data set: pSMAD inhibition in NIH3T3 cells. It is filed as cell-based. The conditions noted are these: Mus musculus, read-out: IC50, inhibition of pSMAD, data not shown.
The subject of a further data set is pSMAD in human PBMCs. Also on record: method as in PMID 17453744. Particulars: cited from earlier work.
For data set [4] the following is noted: patients with myelodysplastic syndrome; cited from earlier work.
Another data set relates to U87MG glioblastoma cells. Nature of the data set: U87MG in vitro cell migration assay. It is filed as cell-based, human. Here is the method:
U87MG cells were cultured in minimum essential medium (MEM) supplemented with 10% fetal bovine serum (FBS). Eight micron migration plates (24 well) were coated with denatured collagen I (BD, cat# 354326) at 10 μg/ml. Following overnight incubation at 4°C, the lower chambers were washed three times with phosphate buffered saline (PBS) followed by blocking with 1% bovine serum albumin (BSA) for 1 hour. The chambers were washed 3 times in PBS then 200 μl of migration buffer [MEM containing 5% blocking solution (Sigma, cat# 2393), […]] was added. […] After 1 hour of culture, 10 ng/ml of recombinant human (rh) TGFβ1 was added to upper chambers and cells were allowed to migrate in a 37°C incubator for 48 hours. The non-migrated cells were aspirated and wiped off the upper chamber with a cotton swab. The inserts were washed 3 times with PBS and the chambers transferred to new […]. The chambers were fixed with 500 μl of 10% neutral buffered formalin (NBF) for 20 minutes followed by three washes with PBS. The cells were stained with Hoechst at 1:10,000 for 20 minutes in the dark then washed three times with PBS. The membranes were cut with a scalpel, placed on a slide and the pictures were taken using Eclipse 90i Microscope. Image Pro-Analyzer 7.0 was used for analysis of migrated cells.

A further data set relates to pSMAD in Mv1Lu cells. Nature of the data set: Endogenous pSMAD inhibition in TGFβ1 stimulated Mv1Lu cells. The class given is cell-based, mink. Particulars: data not shown.
The target of another data set is TGFβRII (Homo sapiens, UniProt P37173). Nature of the data set: Autophosphorylation kinase assay.
On the set-up of data set [5]: method as in earlier work. Particulars: patients with pancreas cancer; cited from earlier work.

What is called Tmax is the time from dosing to the highest level. Broadly, the IC50 is the point on the concentration scale where inhibition reaches its midpoint.

Sequence of TGFβRII (P37173 23-567): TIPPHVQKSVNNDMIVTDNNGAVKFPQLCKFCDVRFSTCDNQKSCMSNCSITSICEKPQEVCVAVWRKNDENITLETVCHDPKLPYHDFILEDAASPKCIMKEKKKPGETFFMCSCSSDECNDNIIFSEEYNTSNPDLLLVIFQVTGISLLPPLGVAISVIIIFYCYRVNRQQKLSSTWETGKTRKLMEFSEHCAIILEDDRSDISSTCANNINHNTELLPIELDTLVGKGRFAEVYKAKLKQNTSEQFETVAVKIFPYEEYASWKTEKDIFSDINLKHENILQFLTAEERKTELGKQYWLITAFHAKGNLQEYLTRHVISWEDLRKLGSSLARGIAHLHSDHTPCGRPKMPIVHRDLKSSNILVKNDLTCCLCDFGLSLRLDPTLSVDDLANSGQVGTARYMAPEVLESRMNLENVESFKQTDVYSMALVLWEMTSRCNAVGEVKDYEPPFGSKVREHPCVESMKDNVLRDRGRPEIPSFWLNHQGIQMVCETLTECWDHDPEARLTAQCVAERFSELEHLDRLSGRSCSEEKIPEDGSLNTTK
Method for U87MG xenograft tumors: Five million U87MG glioblastoma cells, obtained from ATCC (Manassas, VA), were injected subcutaneously in the flank of 8- to 9-week old, female, athymic nude mice (Harlan, Indianapolis, IN) in a 1:1 mixture of 1x PBS and matrigel (Becton Dickinson, Bedford, MA). Mice were monitored daily for palpable tumors. […] The tumor volumes were recorded at regular intervals following treatment.
Method for pSMAD in Calu6 tumors: (§2) For in vivo measurement of tumor cell pSMAD activity, tumors were harvested from mice at the indicated time points post-treatment, snap frozen in liquid nitrogen, then pulverized in lysis buffer [EDTA 5 mM, EGTA 5 mM, sodium pyrophosphate 30 mM, sodium chloride 6.7 mM, sodium fluoride 50 mM, and 1% triton in water, pH 7.4 with protease and phosphatase inhibitors (Sigma, p8340, p5726, p0044) and sodium orthovanadate 2.5 mM]. Protein concentration was estimated with DC protein assay kit (BioRad).
(§3) Percent inhibition of normalized pSMAD2 levels was calculated by first determining the ratio of tSMAD to pSMAD values for the vehicle group. […] Percent inhibition for compound treated groups was determined relative to the minimum pSMAD inhibition of the vehicle group using the formula: [(100- (normalized pSMAD in the experimental treatment group/normalized pSMAD in the vehicle treated group)]. IC50 of pSMAD inhibition was calculated for the data using non-linear regression to fit the standard four parameter logistic model using GraphPad Prism 6.
(§4) Female athymic nu/nu mice or immune competent syngenic BALB/c mice (Charles River or Taconic Farms, respectively, 22 to 28 grams) were maintained in microisolator cages, received food and water ad libitum, and were quarantined for 1 week before experimental manipulation. Sub-confluent Calu6 human non-small cell lung cancer (NSCLC) cells were injected subcutaneously in the flank of nude mice (1x 10^7cells/per animal) in 0.2 mL of culture medium mixed with Matrigel (BD Biosciences, 1:1 v/v). EMT6-LM2 murine triple negative breast cancer tumor cells (5 × 10^5 cells/per animal in the absence of matrigel) were implanted on the flank of BALB/c mice. EMT6-LM2 cells were generated from parental EMT6 cells which were passaged twice from spontaneous lung metastases (LM) following subcutaneous growth. When the tumor volume reached ~250 mm^3, mice were randomized and separated into treatment groups.
(§5) Tumors and plasma were collected 2 hours post dosage for analysis of pSMAD and compound levels.
(§6) Tumors and plasma were collected at the indicated time points (0.5, 1, 1.5, 2, 4, 8, and 16 hours) for analysis of pSMAD and compound levels.
(§7) Percent target inhibition was calculated as described above then was modeled as a function of either dose or plasma concentration.
Method for pSMAD in EMT6-LM2 tumors: as §2, §3, §4, §5, §6, §7

With `Cc1cccc(-c2nn3c(c2-c2ccnc4ccc(C(N)=O)cc24)CCC3)n1.O` [galunisertib, 4-[2-(6-methylpyridin-2-yl)-5,6-dihydro-4H-pyrrolo[1,2-b]pyrazol-3-yl]quinoline-6-carboxamide monohydrate], the Tmax in “in vivo” was 30 min. The same compound showed a tumor growth delay in data set [1] (75 mg/kg twice daily oral gavage, 1500 mm^3 crossing time, p = 0.014) of 10.3 ± 4.3 days. Moreover, the body weight entry in [1] (75 mg/kg twice daily, data not shown) is on record as “No body weight loss”. Moreover, the IC50 in the data set with pSMAD in PBMC came to 1960 nM; in [3] it was 719 nM; in the data set with pSMAD in NIH3T3 cells it was 64 nM; with pSMAD in Mv1Lu cells it was 176 nM; at TGFβRII, 2000 nM. For the same compound, in the data set on U87MG xenograft tumors, the “anti-tumor effect (tumor volume)” value is “modest anti-tumor effect”. The compound further yielded a TED90 in data set [2] (oral, data not shown) of 75 mg/kg. Moreover, the “target inhibition in vivo over 12 hours” value in data set [2] (single oral dose with an exposure of […]-5 μM) is recorded as no less than 20%. Also, the “pSMAD inhibition at maximum plasma exposure” value in the data set on pSMAD in Calu6 tumors (Calu6, at 30 minutes) is reported as ~ 70%; in the data set on pSMAD in EMT6-LM2 tumors (EMT6-LM2, at 30 minutes), ~ 70%. The “TED50, total effective dose to inhibit 50% pSMAD” value is 15.6 mg/kg in the data set with pSMAD in Calu6 tumors (Calu6, single oral dose, tumors 2 hours post dosage) and 19.7 mg/kg with pSMAD in EMT6-LM2 tumors (EMT6-LM2, single oral dose, tumors 2 hours post dosage). Also, the maximum plasma exposure result in the data set with pSMAD in Calu6 tumors (Calu6 time course, single oral dose) is reported as “up to 6 μM”; in the data set with pSMAD in EMT6-LM2 tumors (EMT6-LM2 time course, single oral dose), “up to 6 μM”. The “pSMAD in human PBMCs ex vivo” value in the data set with pSMAD in human PBMCs was “inhibit pSMAD”. The “clinical activity, phase II” value in [4] is listed as “clinical activity”. Also, the TGFβ1-enhanced cell migration result in the data set on U87MG glioblastoma cells (1, 3, 10 μM, rhTGFβ1 10 ng/ml, 48 hours) was “blocked cell migration in a dose dependent manner”. In addition, the “baseline migration in the absence of exogenous TGFβ1” value in the data set on U87MG glioblastoma cells (galunisertib alone) is reported as “reduced baseline migration”. Besides, the “clinical outcome versus gemcitabine, phase II” value in data set [5] is given as “superiority over gemcitabine”.

The record behind these values is paper PMC5805504 (Oncotarget, 2017).
